Drawing on article PMC8724216, “Biochemical and structural characterization of beta-carbonic anhydrase from the parasite Trichomonas vaginalis” (Journal of Molecular Medicine (Berlin, Germany), 2021), this text covers Ki for 32 compounds.

Where only a bound is given, the exact number is not on record here.

In the first experiment the target is T1, TvaCA2 (Trichomonas vaginalis, UniProt A2DLG4).
T1 construct: gene TVAG_268150; recombinant in E. coli BL21 Star (DE3), pBVboostFG; 6xHis-tag removed by thrombin; 185 residues; homodimer, zinc
T1 sequence (A2DLG4 1-184): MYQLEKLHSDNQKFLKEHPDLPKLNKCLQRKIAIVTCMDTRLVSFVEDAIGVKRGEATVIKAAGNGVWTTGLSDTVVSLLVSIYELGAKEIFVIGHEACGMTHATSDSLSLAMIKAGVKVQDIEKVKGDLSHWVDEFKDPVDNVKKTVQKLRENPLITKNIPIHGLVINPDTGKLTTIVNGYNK
Put plainly: stopped-flow CO2 hydration, phenol red. In kind it is biochemical. Conditions: read-out: TvaCA2 β.
In the case of `CCN[C@H]1CN(CCCOC)S(=O)(=O)c2sc(S(N)(=O)=O)cc21` [BRZ], the Ki is 3.23 µM.
On the same count and under the same terms, to `NS(=O)(=O)c1nnc(NS(=O)(=O)c2ccccc2)s1` [BZA] belongs 4.21 µM.
In the case of `Cc1ccc(-c2cc(C(F)(F)F)nn2-c2ccc(S(N)(=O)=O)cc2)cc1` [CLX, celecoxib], the Ki is above 10 µM.
The same measure, in the same setting: to `NS(=O)(=O)c1cc2c(cc1Cl)NCNS2(=O)=O` [HCT] belongs 3.06 µM; to `NS(=O)(=O)c1ccc(S(=O)(=O)Nc2cccc3c(Cl)c[nH]c23)cc1` [IND, indisulam], above 10 µM; to `CC(=O)N=c1sc(S(N)(=O)=O)nn1C` [MZA, methazolamide], 0.39 µM.
Still for that read-out and setting: to `O=C1NS(=O)(=O)c2ccccc21` [SAC, saccharin] belongs above 10 µM.
`CCN1CCCC1CNC(=O)c1cc(S(N)(=O)=O)ccc1OC` (centres unmarked) [SLP, sulpride]: the Ki was above 10 µM.
Same read-out and setting: with `NS(=O)(=O)c1ccc(N2CCCCS2(=O)=O)cc1` [SLT, sulthiame] the figure was above 10 µM; with `CC1(C)O[C@@H]2[C@@H](CO[C@@]3(COS(N)(=O)=O)OC(C)(C)O[C@@H]23)O1` [TPM, topiramate], above 10 µM.
With `Cc1onc(-c2ccccc2)c1-c1ccc(S(N)(=O)=O)cc1` [VLX, valdecoxib], the Ki was above 10 µM.
In the case of `NS(=O)(=O)Cc1noc2ccccc12` [ZNS, zonisamide], the Ki is above 10 µM.
Consider `NS(=O)(=O)c1cccc(S(N)(=O)=O)c1` [compound 3, 1,3-disulfamoyl benzene], for which the Ki was 0.446 µM.
Same read-out and setting: with `Nc1ccc(S(N)(=O)=O)cc1Br` [compound 9, 3-bromo-4-amino-benzenesulfonamide] the figure was above 10 µM; with `Nc1cc(C(F)(F)F)c(S(N)(=O)=O)cc1S(N)(=O)=O` [compound 11, 4-amino-6-trifluoromethyl-benzene-1,3-disulfonamide], 0.44 µM; with `Nc1cc(Cl)c(S(N)(=O)=O)cc1S(N)(=O)=O` [compound 12, 4-amino-6-chloro-1,3-benzenedisulfonamide], 0.382 µM.
In the case of `Nc1nnc(S(N)(=O)=O)s1` [compound 13, 5-amino-1,3,4-thiadizole-2-sulfonamide], the Ki is 1.15 µM.

A further experiment concerns the target T1, TvaCA2. Put plainly: biochemical. More on the design: stopped-flow CO2 hydration, phenol red absorbance at 557 nm, 20 °C, pH 7.5, 15 min preincubation. Conditions: inhibitor; read-out: TvaCA2 β. As for the experimental part:
CA-catalyzed CO2 hydration activity was investigated with an Applied Photophysics stopped-flow instrument at 20 °C [20]. Twenty millimolar Hepes was used as buffer (pH 7.5) with 20 mM Na2SO4 (for maintaining a constant ionic strength). Phenol red of 0.2 mM was used as a pH indicator, working at a maximum absorbance of 557 nm. The initial rates of the CA-catalyzed CO2 hydration reaction were followed for 10–100 s. CO2 concentrations of 1.7–17 mM were used to determine the kinetic parameters and inhibition constants. For each inhibitor, the initial velocity was determined by using ≥ 6 traces of the initial 5–10% of the reaction. The uncatalyzed rates were determined similarly and subtracted from the total observed rates. DSMO was used at 5% to make the stock solution, from which 0.1 mM inhibitor solutions were prepared in dH2O. Subsequently, dilutions up to 0.01 nM were prepared with dH2O. Inhibitor and enzyme solutions were preincubated together (15 min, room temperature) prior to the assay to allow the formation of the enzyme–inhibitor complex. The inhibition constants were obtained by nonlinear least-squares methods using PRISM 3 and represent the means from ≥ 3 different measurements. The gene sequence of the second β-CA of T. vaginalis (TvaCA2) was retrieved from Universal Protein Resource Database UniProt (protein entry A2DLG4). An Escherichia coli expression system with a multipromoter vector, pBVboostFG (Online Resource 1), was used for the expression of TvaCA2. Gene synthesis and subcloning were performed by GeneArt (Thermo Fisher Scientific, Waltham, USA). The cells (OneShot® BL21 Star™ (DE3) Chemically Competent Cells, #C601003, Thermo Fisher Scientific, Waltham, USA) were cultured in an orbital shaker (200 rpm, 37 °C) in Luria–Bertani (LB) medium supplemented with 10 mg/mL gentamicin (1:1000). The cells were harvested via centrifugation (4 °C, 15 min, 5000 × g) after reaching an optical density of 0.4–0.6, and they were mechanically disrupted with an EmulsiFlex-C3 homogenizer (AVESTIN, Ottawa, Canada) in 50 mM Na2HPO4, 0.5 M NaCl, and 50 mM imidazole binding buffer (BB; pH 8.0), and centrifuged (13,000 × g, 15 min, 4 °C). […] After incubation, the resin was packed into a chromatography column with an EMD Millipore™ vacuum filtering flask (#XX1004705, Merck, Darmstad, Germany). The protein was eluted with 50 mM Na2HPO4, 0.5 M NaCl, and 350 mM imidazole (pH 7.0). The 6xHis-tag was removed by thrombin (#RECOMT, Sigma-Aldrich, St. Louis, USA) according to the Thrombin CleanCleave™ Kit manual (Sigma-Aldrich, St. Louis, USA) followed by Ni^2+-NTA affinity chromatography. NanoDrop One (Thermo Fisher Scientific, Waltham, USA) was used to determine the protein yield, and the quality of the purified protein was analyzed by SDS-PAGE (sodium dodecyl sulfate–polyacrylamide gel electrophoresis) using a 12% polyacrylamide gel visualized with PageBlue Protein staining solution (Thermo Fisher Scientific, #24,620, Waltham, USA). The obtained polypeptide bands of the SDS-PAGE gel were identified using tandem mass spectrometry (MS/MS; Meilahti Clinical Proteomics Core Facility, […]
Take `Nc1cccc(S(N)(=O)=O)c1` [compound 01]: the Ki stood at 3.93 µM.
Same read-out and setting: with `NS(=O)(=O)c1cc(Cl)cc(Cl)c1O` [compound 10] the figure was above 10 µM; with `Nc1nccc(Nc2ccc(S(N)(=O)=O)cc2)n1` [compound 19], above 10 µM.
The same measure, in the same setting: with `NS(=O)(=O)c1ccc(CCNS(=O)(=O)c2ccc([N+](=O)[O-])cc2CO)cc1` [compound 21] the figure was 4.16 µM.

Still in this experiment, the particulars now being: read-out: TvaCA2 β.
Take `Nc1ccc(S(N)(=O)=O)cc1` [compound 02]: the Ki is 1.29 µM.
Still for that read-out and setting: with `Cc1ccc(S(N)(=O)=O)cc1` [compound 04] the figure was 1.29 µM.
On the same count and under the same terms, to `NCc1ccc(S(N)(=O)=O)cc1` [compound 05] belongs 4.19 µM; to `NCCc1ccc(S(N)(=O)=O)cc1` [compound 06], 4.23 µM.
As to `Nc1ccc(S(N)(=O)=O)cc1F` [compound 07], the Ki amounted to 1.29 µM.
In the case of `Nc1ccc(S(N)(=O)=O)cc1Cl` [compound 08], the Ki was 3.95 µM.
On to `Cn1nc(S(N)(=O)=O)sc1=N` [compound 14], for which the Ki stood at 1.61 µM.
On the same count and under the same terms, with `NS(=O)(=O)c1ccc(C(=O)O)cc1` [compound 18] the figure was 1.63 µM; with `Nc1ccc(S(=O)(=O)Nc2nnc(S(N)(=O)=O)s2)cc1` [compound 20], 1.04 µM; with `Nc1ccc(S(=O)(=O)Nc2ccc(S(N)(=O)=O)cc2)cc1` [compound 22], 3.9 µM.
On the same count and under the same terms, to `Nc1ccc(S(=O)(=O)NCc2ccc(S(N)(=O)=O)cc2)cc1` [compound 23] belongs 2.26 µM.
